Experimental data: patent US20080171657A1, “5,6-Dialkyl-7-Aminoazolopyrimidines, Their Preparation and Their Use for Controlling Harmful Fungi, and Compositions Comprising These Compounds” (Basf Aktiengesellschaft, priority 2005, published 2008)

What was measured:
Puccinia recondita = experiment: Protective activity against Puccinia recondita on wheat (brown rust of wheat); format: in vivo; details: comparison to closest prior art; concentration not given; untreated 90
Description: The active compounds were prepared as a stock solution comprising 25 mg of active compound which was made up to 10 ml using a mixture of acetone and/or DMSO and the emulsifier Uniperol® EL (wetting agent having emulsifying and dispersing action based on ethoxylated alkylphenols) in a volume ratio of solvent/emulsifier of 99/1. The mixture was then made up to 100 ml with water. This stock solution was diluted with the solvent/emulsifier/water mixture described to the concentration of active compound stated below. Protective Activity Against Puccinia recondita on Wheat (brown Rust of Wheat) Leaves of potted wheat seedlings of the cultivar “Kanzler” were sprayed to runoff point with an aqueous suspension having the concentration of active compounds stated below. The next day, the treated plants were inoculated with a spore suspension of brown rust of wheat (Puccinia recondite). The plants were then placed in a chamber with high atmospheric humidity (90 to 95%) at 20 to 22° C. for 24 hours. During this time, the spores germinated and the germ tubes penetrated into the leaf tissue. The next day, the test plants were returned to the greenhouse and cultivated at temperatures between 20 and 22° C. and 65 to 70% relative atmospheric humidity for a further 7 days. The extent of the rust fungus development on the leaves was then determined visually.

Row | Structure (SMILES) | Infection in % (Puccinia recondita) [%] | melting point [°C]
1 | CCCCCc1c(CCC)nc2cc(C)nn2c1N [compound 24, reference compound] | 40 | 
2 | CCCCCCc1c(CCC)nc2cc(C)nn2c1N [I-1] | 20 | 132 to 134
